Consider 2 compounds from US10196442B2, “Methods of inhibiting growth of a colon cancer tumor in a subject by administering monoclonal antibodies to G protein-coupled receptor 49 (GPR49)” (Bionomics Inc., priority 2011, dated 2019).

Assay [1] relates to colon tumor cells. In words: Secondary transplant tumor formation after GPR49 mAb+irinotecan (Example 30). The settings on record: 140 day follow-up. In kind it is in vivo, mice. The source says: Isolated tumor cells from control or GPR49 mAb+irinotecan treated tumors from the in vivo study outlined in Example 3 were harvested, pooled, dissociated and re-implanted in a limiting dilution secondary transplant assay to measure cancer stem cell frequency. For each treatment group, 8 mice were implanted with 10, 30, 100 cells. […]

Assay [2] deals with CT1 primary xenograft cells. In words: CT1 primary xenograft, murine mAbs in combination with Irinotecan. It counts as in vivo, SCID beige female mice. To be noted: Irinotecan 10 mg/kg IP once per day for the first 5 days. The procedure:
Single agent in vivo efficacy of murine antibodies 14F7.1, 18G7.1, 5B10.1, 14A8.1, 1B3.5 was evaluated in a primary colon tumor xenograft model system using CT1 primary xenograft cells. CT1 is a primary colorectal (CRC) in vivo xenograft tumor established from a fresh CRC patient tumor sample. The mutational status was determined by Ion Torrent deep sequencing to identify oncogene mutations. Approximately 5-15% of CT1 tumors express GPR49. SCID beige female mice were inoculated with CT1 tumor cells and monitored for tumor growth. Mice were randomized at day 0 into groups of 10 when mean tumor volume reached 175 mm^3. Chemotherapeutic Irinotecan was administered IP at 10 mg/kg once per day for the first 5 days. The antibodies were administered intraperitoneally (i.p.) at 15 mg/kg administered twice weekly for 4 weeks. Tumors were measured at the indicated intervals post-inoculation for total tumor volume.

Assay [3] addresses T1, GPR49 (Homo sapiens, UniProt O75473).
T1 construct: endogenous in cells; host or cells: Lovo colon tumor cells
T1 sequence (O75473 22-907): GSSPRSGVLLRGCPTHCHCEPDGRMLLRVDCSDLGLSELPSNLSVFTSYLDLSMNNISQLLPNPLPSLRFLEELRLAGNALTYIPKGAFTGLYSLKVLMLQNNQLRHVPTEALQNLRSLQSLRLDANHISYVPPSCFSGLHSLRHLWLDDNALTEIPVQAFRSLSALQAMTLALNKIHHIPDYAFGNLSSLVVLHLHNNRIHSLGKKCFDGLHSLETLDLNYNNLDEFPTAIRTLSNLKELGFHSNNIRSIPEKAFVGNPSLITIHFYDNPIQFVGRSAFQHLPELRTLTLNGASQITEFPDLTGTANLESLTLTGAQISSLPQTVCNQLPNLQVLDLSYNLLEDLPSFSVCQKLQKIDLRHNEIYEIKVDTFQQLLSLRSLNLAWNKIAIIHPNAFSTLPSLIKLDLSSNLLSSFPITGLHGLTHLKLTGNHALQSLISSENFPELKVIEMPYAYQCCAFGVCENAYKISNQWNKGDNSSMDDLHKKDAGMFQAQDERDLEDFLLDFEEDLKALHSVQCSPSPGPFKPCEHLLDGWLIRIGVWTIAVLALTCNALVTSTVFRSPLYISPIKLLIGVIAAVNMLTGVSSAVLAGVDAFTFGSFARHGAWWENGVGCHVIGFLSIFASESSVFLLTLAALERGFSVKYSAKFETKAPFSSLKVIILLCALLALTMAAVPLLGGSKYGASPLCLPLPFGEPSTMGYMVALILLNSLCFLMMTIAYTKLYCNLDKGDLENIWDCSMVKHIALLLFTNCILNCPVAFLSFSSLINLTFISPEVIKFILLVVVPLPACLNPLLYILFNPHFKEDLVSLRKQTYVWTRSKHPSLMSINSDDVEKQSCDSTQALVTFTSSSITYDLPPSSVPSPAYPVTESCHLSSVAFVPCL
The assay is described as follows: Internalization of GPR49 in Lovo colon tumor cells (confocal). It counts as cell-based. To be noted: 10 ug/ml, 37° C., 60 min. The procedure:
Methods: Lovo colon tumor cells were seeded at 50,000 cells per well into 8 well chamber slides (Becton Dickinson Collagen Type 1 coated culture slides, BD BioCoat™#354630) 48 hours prior to staining procedures. Cells were routinely maintained below 20 passages. On day of staining procedures, culture media was discarded from each well and replaced with 500 ul cold incubation buffer (MEM Eagle ATCC #30-2003+1% BSA). Cells were washed 2× with this buffer for 3 min each wash. 250 ul of each mAb (76C12, 78F05 and murine 10A9.2) to be tested was then added to the appropriate well at a concentration of 10 ug/ml, diluted in incubation media, and incubated on ice for 1 hour. A human anti-human-IGF-1R antibody was used as a positive control to compare degree of internalization. Antibody 5A7 (anti-Id mAb), IDEC152 (anti-CD23 IgG1 mAb) and no antibody were used as negative controls. After the 45 minutes incubation on ice, the time zero (1=0′) slide washed 3× with 500 ul of cold wash buffer (PBS+1% BSA+2% Goat serum) for 3 min each wash (slides always kept on ice). The t=0 slide was then fixed with 500 ul […] (diluted with PBS from 16% stock; EMS #15710) for 15 minutes at room temperature. The t=0 slide was then washed again 3× with cold wash buffer for 3 minutes each wash, then left on ice. […]

Turning to `CCc1c2c(nc3ccc(OC(=O)N4CCC(N5CCCCC5)CC4)cc13)-c1cc3c(c(=O)n1C2)COC(=O)[C@]3(O)CC` [Irinotecan], in assay [1] (cells from irinotecan treated tumors), the “average size of tumors” value is given as 1729 mm^3. Moreover, in assay [1] (cells from pre-treated tumors), the mice with tumors is 5/8. For the same compound, the “tumor inhibition by Irinotecan alone” value in assay [2] is recorded as 45%.
For the compound “IDEC152: primatized anti-CD23 IgG1 mAb, negative control”, the “internalization of GPR49” value in assay [3] was “did not bind or internalize”.
